Laboratory results reported in patent US20140024527A1, “HERBICIDAL PYRAZINONES” (E I DU DE NEMOURS AND COMPANY, priority 2011, published 2014).

Assays:
Assay in all cases: Test B postemergence
Format in all cases: in vivo
Conditions in all cases: scale 0 to 100
[1] = system: cocklebur (Xanthium strumarium)
Excerpt: (§1) Seeds of plant species selected from blackgrass (Alopecurus myosuroides), downy bromegrass (Bromus tectorum), green foxtail (Setaria viridis), Italian ryegrass (Lolium multiflorum), wheat (Triticum aestivum), wild oat (Avena fatua), galium (Galium aparine), bermudagrass (Cynodon dactylon), Surinam grass (Brachiaria decumbens), cocklebur (Xanthium strumarium), corn (Zea mays), large crabgrass (Digitaria sanguinalis), woolly cupgrass (Eriochloa villosa), giant foxtail (Setaria faberii), goosegrass (Eleusine indica), johnsongrass (Sorghum halepense), kochia (Kochia scoparia), lambsquarters (Chenopodium album), morningglory (Ipomoea coccinea), yellow nutsedge (Cyperus esculentus), pigweed (Amaranthus retroflexus), ragweed (Ambrosia elatior), soybean (Glycine max), velvetleaf (Abutilon theophrasti), barley (Hordeum vulgare), canarygrass (Phalaris minor), chickweed (Stellaria media), deadnettle (Lamium amplexicaule) and windgrass (Apera spica-venti) were planted in pots containing Redi-Earth® planting medium (Scotts Company, Marysville, Ohio, USA) comprising spaghnum peat moss, vermiculite, wetting agent and starter nutrients and treated postemergence with test compounds formulated in a non-phytotoxic solvent mixture which included a surfactant. Plants ranged in height from 2 to 18 cm (1- to 4-leaf stage).
(§2) Treated plants and controls were maintained in a greenhouse for 13 to 15 days, after which time all species were compared to controls and visually evaluated. Plant response ratings, summarized in Table B, are based on a scale of 0 to 100 where 0 is no effect and 100 is complete control. A dash (-) response means no test result.

[2] = system: downy bromegrass (Bromus tectorum)
Excerpt: as §1, §2

[3] = system: johnsongrass (Sorghum halepense)
Excerpt: as §1, §2

kochia (Kochia scoparia) = system: kochia (Kochia scoparia)
Excerpt: as §1, §2

[4] = system: blackgrass (Alopecurus myosuroides)
Excerpt: as §1, §2

[5] = system: large crabgrass (Digitaria sanguinalis)
Excerpt: as §1, §2

[6] = system: Italian ryegrass (Lolium multiflorum)
Excerpt: as §1, §2

[7] = system: bermudagrass (Cynodon dactylon)
Excerpt: as §1, §2

[8] = system: green foxtail (Setaria viridis)
Excerpt: as §1, §2

[9] = system: canarygrass (Phalaris minor)
Excerpt: as §1, §2

[10] = system: pigweed (Amaranthus retroflexus)
Excerpt: as §1, §2

[11] = system: giant foxtail (Setaria faberii)
Excerpt: as §1, §2

[12] = system: goosegrass (Eleusine indica)
Excerpt: as §1, §2

[13] = system: deadnettle (Lamium amplexicaule)
Excerpt: as §1, §2

[14] = system: ragweed (Ambrosia elatior)
Excerpt: as §1, §2

[15] = system: morningglory (Ipomoea coccinea)
Excerpt: as §1, §2

soybean (Glycine max) = system: soybean (Glycine max)
Excerpt: as §1, §2

[16] = system: velvetleaf (Abutilon theophrasti)
Excerpt: as §1, §2

[17] = system: lambsquarters (Chenopodium album)
Excerpt: as §1, §2

wild oat (Avena fatua) = system: wild oat (Avena fatua)
Excerpt: as §1, §2

barley (Hordeum vulgare) = system: barley (Hordeum vulgare)
Excerpt: as §1, §2

[18] = system: woolly cupgrass (Eriochloa villosa)
Excerpt: as §1, §2

[19] = system: chickweed (Stellaria media)
Excerpt: as §1, §2

COCCn1c(-c2cccc(F)c2)c(Cl)nc(C(=O)C2=C(O)CCCC2=O)c1=O [Compound 4, 5-chloro-6-(3-fluorophenyl)-3-[(2-hydroxy-6-oxo-1-cyclohexen-1-yl)carbonyl]-1-(2-methoxyethyl)-2(1H)pyrazinone]
Plant response rating, Cocklebur ([1]; 31 g ai/ha): 5 | Plant response rating, Cocklebur ([1]; 62 g ai/ha): 25 | Plant response rating, Cocklebur ([1]; 125 g ai/ha): 65 | Plant response rating, Cocklebur ([1]; 250 g ai/ha): 85 | Plant response rating, Bromegrass, Downy ([2]; 31 g ai/ha): 0 | Plant response rating, Bromegrass, Downy ([2]; 62 g ai/ha): 10 | Plant response rating, Bromegrass, Downy ([2]; 125 g ai/ha): 15 | Plant response rating, Bromegrass, Downy ([2]; 250 g ai/ha): 15 | Plant response rating, Johnsongrass ([3]; 31 g ai/ha): 60 | Plant response rating, Johnsongrass ([3]; 62 g ai/ha): 60 | Plant response rating, Johnsongrass ([3]; 125 g ai/ha): 75 | Plant response rating, Johnsongrass ([3]; 250 g ai/ha): 85 | Plant response rating, Kochia (kochia (Kochia scoparia); 31 g ai/ha): 10 | Plant response rating, Kochia (kochia (Kochia scoparia); 62 g ai/ha): 45 | Plant response rating, Kochia (kochia (Kochia scoparia); 125 g ai/ha): 55 | Plant response rating, Kochia (kochia (Kochia scoparia); 250 g ai/ha): 90 | Plant response rating, Blackgrass ([4]; 31 g ai/ha): 5 | Plant response rating, Blackgrass ([4]; 62 g ai/ha): 5 | Plant response rating, Blackgrass ([4]; 125 g ai/ha): 5 | Plant response rating, Blackgrass ([4]; 250 g ai/ha): 10 | Plant response rating, Crabgrass, Large ([5]; 31 g ai/ha): 70 | Plant response rating, Crabgrass, Large ([5]; 62 g ai/ha): 75 | Plant response rating, Crabgrass, Large ([5]; 125 g ai/ha): 80 | Plant response rating, Crabgrass, Large ([5]; 250 g ai/ha): 85 | Plant response rating, Ryegrass, Italian ([6]; 31 g ai/ha): 0 | Plant response rating, Ryegrass, Italian ([6]; 62 g ai/ha): 0 | Plant response rating, Ryegrass, Italian ([6]; 125 g ai/ha): 0 | Plant response rating, Ryegrass, Italian ([6]; 250 g ai/ha): 10 | Plant response rating, Bermudagrass ([7]; 31 g ai/ha): 5 | Plant response rating, Bermudagrass ([7]; 62 g ai/ha): 20 | Plant response rating, Bermudagrass ([7]; 125 g ai/ha): 35 | Plant response rating, Bermudagrass ([7]; 250 g ai/ha): 40 | Plant response rating, Foxtail, Green ([8]; 31 g ai/ha): 35 | Plant response rating, Foxtail, Green ([8]; 62 g ai/ha): 35 | Plant response rating, Foxtail, Green ([8]; 125 g ai/ha): 35 | Plant response rating, Foxtail, Green ([8]; 250 g ai/ha): 70 | Plant response rating, Canarygrass ([9]; 31 g ai/ha): 25 | Plant response rating, Canarygrass ([9]; 62 g ai/ha): 40 | Plant response rating, Canarygrass ([9]; 125 g ai/ha): 50 | Plant response rating, Canarygrass ([9]; 250 g ai/ha): 60 | Plant response rating, Pigweed ([10]; 31 g ai/ha): 65 | Plant response rating, Pigweed ([10]; 62 g ai/ha): 80 | Plant response rating, Pigweed ([10]; 125 g ai/ha): 90 | Plant response rating, Pigweed ([10]; 250 g ai/ha): 98 | Plant response rating, Foxtail, Giant ([11]; 31 g ai/ha): 40 | Plant response rating, Foxtail, Giant ([11]; 62 g ai/ha): 60 | Plant response rating, Foxtail, Giant ([11]; 125 g ai/ha): 70 | Plant response rating, Foxtail, Giant ([11]; 250 g ai/ha): 75 | Plant response rating, Goosegrass ([12]; 31 g ai/ha): 5 | Plant response rating, Goosegrass ([12]; 62 g ai/ha): 45 | Plant response rating, Goosegrass ([12]; 125 g ai/ha): 50 | Plant response rating, Goosegrass ([12]; 250 g ai/ha): 65 | Plant response rating, Deadnettle ([13]; 31 g ai/ha): 15 | Plant response rating, Deadnettle ([13]; 62 g ai/ha): 15 | Plant response rating, Ragweed ([14]; 31 g ai/ha): 50 | Plant response rating, Ragweed ([14]; 62 g ai/ha): 65 | Plant response rating, Ragweed ([14]; 125 g ai/ha): 75 | Plant response rating, Ragweed ([14]; 250 g ai/ha): 90 | Plant response rating, Morningglory ([15]; 31 g ai/ha): 90 | Plant response rating, Morningglory ([15]; 62 g ai/ha): 95 | Plant response rating, Morningglory ([15]; 125 g ai/ha): 95 | Plant response rating, Morningglory ([15]; 250 g ai/ha): 95 | Plant response rating, Soybean (soybean (Glycine max); 31 g ai/ha): 55 | Plant response rating, Soybean (soybean (Glycine max); 62 g ai/ha): 60 | Plant response rating, Soybean (soybean (Glycine max); 125 g ai/ha): 75 | Plant response rating, Soybean (soybean (Glycine max); 250 g ai/ha): 75 | Plant response rating, Velvetleaf ([16]; 31 g ai/ha): 50 | Plant response rating, Velvetleaf ([16]; 62 g ai/ha): 50 | Plant response rating, Velvetleaf ([16]; 125 g ai/ha): 60 | Plant response rating, Velvetleaf ([16]; 250 g ai/ha): 75 | Plant response rating, Lambsquarters ([17]; 31 g ai/ha): 95 | Plant response rating, Lambsquarters ([17]; 62 g ai/ha): 98 | Plant response rating, Lambsquarters ([17]; 125 g ai/ha): 98 | Plant response rating, Lambsquarters ([17]; 250 g ai/ha): 100 | Plant response rating, Oat, Wild (wild oat (Avena fatua); 31 g ai/ha): 5 | Plant response rating, Oat, Wild (wild oat (Avena fatua); 62 g ai/ha): 30 | Plant response rating, Oat, Wild (wild oat (Avena fatua); 125 g ai/ha): 30 | Plant response rating, Oat, Wild (wild oat (Avena fatua); 250 g ai/ha): 40 | Plant response rating, Barley (barley (Hordeum vulgare); 31 g ai/ha): 0 | Plant response rating, Barley (barley (Hordeum vulgare); 62 g ai/ha): 20 | Plant response rating, Barley (barley (Hordeum vulgare); 125 g ai/ha): 20 | Plant response rating, Barley (barley (Hordeum vulgare); 250 g ai/ha): 30 | Plant response rating, Cupgrass, Woolly ([18]; 31 g ai/ha): 50 | Plant response rating, Cupgrass, Woolly ([18]; 62 g ai/ha): 70 | Plant response rating, Cupgrass, Woolly ([18]; 125 g ai/ha): 75 | Plant response rating, Cupgrass, Woolly ([18]; 250 g ai/ha): 85 | Plant response rating, Chickweed ([19]; 31 g ai/ha): 5 | Plant response rating, Chickweed ([19]; 62 g ai/ha): 10 | Plant response rating, Chickweed ([19]; 125 g ai/ha): 15 | Plant response rating, Chickweed ([19]; 250 g ai/ha): 45
